Values of other authors in patent US12226530B2, “Lenalidomide gastro-retentive sustained-release tablet and preparation method thereof” (DiQi Pharmaceuticals Co., Ltd., priority 2018, dated 2025).
Read-outs that look alike come from different tables or passages of the source.

Key:
[1] = not given; remark: listed apart in the source

- Change of concentration (solvent pH 1.2, 6 hours): unchanged
- Decrease of concentration (solvent pH 4.5, 6 hours): 6%
- Decrease of concentration (solvent pH 6.8, 6 hours): 16%
- Solubility ([1]; hydrochloric acid buffer with a pH of 1.2): about 18 mg/ml
- Solubility ([1]; pH of solution medium greater than 4.6): lower than 0.6 mg/ml
SMILES: Nc1cccc2c1CN(C1CCC(=O)NC1=O)C2=O (centres unmarked) [lenalidomide]
